A short description of data set [1]: DPPH assay (free-radical scavenging). It is filed as biochemical. Conditions: for DPPH free-radical scavenging: amount of antioxidant (in mg) needed to inhibit 1 mmol of DPPH; for antioxidative action (DPPH test), in words: comparison with vitamin C; for AE (×10^−3): anti-free-radical efficiency from EC50 and TEC50; for TEC50: reaction time necessary to achieve EC50. Here is the method:
In the presence of a free-radical scavenger, the electron is paired, the absorption disappears, and the decoloration proceeds stoichiometrically taking into account the electrons taken up. The absorbance is measured in a photometer, The anti-free-radical property of the substance to be tested is determined by measuring the concentration at which 50% of the 2,2-diphenyl-1-picrylhydrazyl employed has reacted with the free-radical scavenger. This concentration is expressed as EC50, a value which can be considered to be a property of the substance under the given measurement conditions. […] The EC50 value here is a measure of the capacity of the respective compound to scavenge free radicals. The lower the EC50 value, the higher the capacity to scavenge free radicals. […] A further important aspect for the action of the antioxidants is the time in which this EC50 value is reached. This time, measured in minutes, gives the TEC50 value, which allows a conclusion to be drawn on the rate at which these antioxidants scavenge free radicals. The anti-free-radical efficiency (AE) (described in C. Sanchez-Moreno, J. A. Larrauri and F. Saura-Calixto in J. Sci. […] Aliquots of this solution are mixed with various concentrations of the compound to be tested. […] The lower this value, the higher the corresponding antioxidant activity. The reaction time necessary to achieve this value is indicated in the value TEC50 (in minutes). The anti-free-radical efficiency (AE) is obtained from this in accordance with the following relationship: [formula] A higher AE value here indicates a higher activity against free radicals.

Data set [2] in a line: Rancimat assay (oxidation stability of soya oil). To be noted: for Protection factor: 0.1% by weight in 4 g of soya oil at 120° and 15 l of air/h. The source says: The Rancimat method for determination of the oxidation stability of fats and oils is known from the literature (Läubli M. W., Bruttel P. A.: “Determination of the oxidation stability of fats and oils—comparison between the active oxygen method (AOCS Cd 12-57) and the Rancimat method”, Fat. Sci. Technol. 90; 56-58 (1988); or Metrohm “Application Bulletin” Metrohm, No. 232/1 d, “Determination of the antioxidant activity by the Rancimat method”; handbook: “Rancimat 679”, Metrohm, instrument for the determination of oxidation and thermal stability, use instructions 8.679.1001, Metrohm AG, CH-9100 Herisau (Switzerland)).

A short description of data set [3]: Time dependence of the antioxidative activity (DPPH test after storage). To be noted: 1 mol % solution in EtOH:H2O 1:1, storage for 90 days at 40° C. (The DPPH test is a chemical assay of radical scavenging.)
Data set [4] in a line: Hypoxanthine-xanthine oxidase test (superoxide scavenging, NBT reduction). It is filed as biochemical. To be noted: value at which 50% of the original superoxide free-radical anion concentration is still present. Here is the method:
Superoxide Free-Radical Anion Scavenging Efficiency of ASG I (Hypoxanthine-Xanthine Oxidase Test) Reaction of fresh xanthine oxidase with hypoxanthine in the presence of EDTA in aqueous solution gives superoxide free-radical anions. The free-radical anions are determined spectrophotometrically via the reduction of nitroblue tetrazolium (NBT) to nitroblue diformazan. The reduction is evident from the […] in the absorption band at 560 nm. […] The IC50 is the value at which 50% of the original superoxide free-radical anion concentration is still present. The lower this value, the higher the corresponding antioxidant activity.

Data set [5] is described as follows: TEAC assay (ABTS radical cation decolorisation). It is filed as biochemical. To be noted: comparative experiment with starting substances. As to the method:
This free-radical cation has absorption maxima at 645 nm, 734 nm and 815 nm. The addition of an antioxidant to the ABTS free-radical cation results in reduction to ABTS. The magnitude of this conversion depends on the activity and concentration of the antioxidant and on the duration of the reaction. The reduction is evident from the decrease in absorbance, and the percentage of reduced ABTS is determined as a function of concentration and time and calculated relative to the reactivity of trolox (TEAC). […] This method can be used for the determination of antioxidants which are soluble in water or organic solvents (according to: Re, […]., Yang, M., & Rice, E. C. (1999) Antioxidant activity applying an improved ABTS radical cation decolorisation assay. Free Radical Biology and Medicine, 26, 1231-1237). The absorbance values measured after six minutes are used. The percentage of reduced ABTS is plotted against the concentration of the active ingredient (ASG I from Example 1 or trolox), and the slope of the lines is determined. In order to determine the TEAC value of ASG I, […].

A short description of data set [6]: Lipid assay (ABAP-induced oxidation of linoleic acid in SDS micelles). The class given is biochemical. To be noted: for Lipid test: comparative experiment, standardised to tocopherol; for Standardised to tocopherol (relative antioxidative efficiency, RAE): % inhibition standardised to tocopherol; for AE/20 min: absorbance change at 236 nm, Reference 0.4567; for % inhibition: inhibition of linoleic acid oxidation versus reference. Here is the method: ABAP, which is water-soluble per se, is dispersed in SDS micelles. Linoleic acid (cis,cis-9,12-octadecadienoic acid) is likewise dispersed in SDS micelles. The free radicals cause the oxidation of linoleic acid to the isomer having conjugated double bonds. The formation of the conjugated double bond can be determined through the increase in the absorbance at 236 nm. The ability of the antioxidant to inhibit the rate of formation is determined relative to the tocopherol standard (in accordance with: Pryor, W. A., Cornicelli, […]., & Wu, M. (1993) A rapid screening test to determine the antioxidant potencies of natural and synthetic antioxidants. J Org Chem, 58, 3521-3532).

For the next data set, the target named is tyrosinase. Description: Tyrosinase activity test with substrate L-tyrosine. The class given is biochemical. Conditions: tyrosinase 10 units, L-tyrosine 4 mM, 37° C., 1 hour, OD 450 nm. Here is the method:
Tyrosinase is the key enzyme in the synthesis of melanin. Substances which inhibit tyrosinase activity are therefore suitable as skin-lightening active ingredients. The action is also investigated with L-tyrosine as substrate and compared with that of reference substances. The substances and tyrosinase (10 units) are pre-incubated on ice for 10 minutes; tyrosine is then added (final concentration 4 mM), and the plates are incubated at 37° C. for 1 hour. The optical density at each test point is measured at 450 nm against the corresponding control without enzyme.

Data set [7] in a line: Storage stability / hydrolysis of ASG I in EtOH:H2O solution. It is filed as physicochemical. As to the method:
The reducing action of each substance (DPPH test) as a function of time is investigated and expressed as the amount of substance in mg required to inhibit 1 mmol of the DPPH free radical (FIG. 1).
Under storage conditions (90 days at 40° C., 1 mol-percent solution in EtOH:H2O), only 50% of the initial concentration of ASG I is retained after 30 days.

The conditions of data set [8]: no shift in absorbance of the complex induced by N3^−.
For data set [9] the following is noted: test described in Gan, Seib 1998; cited from earlier work.

≈ marks a conversion by molar mass, not a printed value. Entries after “also recorded” stand apart in the source; their conditions may differ.

`CCCCCCCCCCCCCCCC(=O)OC[C@H](O)[C@H]1OC(=O)C(O)=C1O` [Ascorbyl palmitate, 6-ascorbyl palmitate, reference compound] gave a DPPH free-radical scavenging in data set [1] of 211 mg. The compound also gave a Protection factor in [2] (substance added pure) of 2.01. For the same compound, in [3], the “antioxidative action after storage (DPPH test)” value was “lose their antioxidative action”.
Regarding `Cc1c(C)c2c(c(C)c1O)CCC(C)(CCCC(C)CCCC(C)CCCC(C)C)O2` (centres unmarked) [Vitamin E, reference compound], in data set [2] (substance added pure), the Protection factor is listed as 0.94.
Take `Cc1c(C)c2c(c(C)c1O)CCC(C)(C(=O)O)O2` (centres unmarked) [Trolox]: the IC50 – broadly, the point on the concentration scale where inhibition reaches its midpoint – in data set [4] was 388 µg/mL (≈ 1550 µM).
`O=C1O[C@H]([C@@H](O)COC(=O)c2ccc(O)cc2)C(O)=C1O` [Substance 4, L-ascorbyl 6-O-(4-hydroxy)benzoate]: in [1], the DPPH free-radical scavenging worked out at 185 mg and the “antioxidative action (DPPH test), in words” value is on record as “virtually the same reducing action as vitamin C”.
Consider `O=C1O[C@H]([C@@H](O)CO)C(O)=C1O` [Vitamin C, ascorbic acid, reference compound], for which, in [1], the DPPH free-radical scavenging is 102 mg, the “AE (×10^−3)” value was 61.72 ×10^−3 and the TEC50 was less than 60 min. Besides, the TEAC in [5] is listed as 1. In data set [6], this compound returned a Lipid test of 0.09. Further, in data set [4], the “IC50” value was found to be 25.5 µg/mL (≈ 145 µM). Further, the “antioxidative action after storage (DPPH test)” value in data set [3] was “lose their antioxidative action”.
For `O=C1O[C@H]([C@@H](O)COC(=O)c2ccc(O)c(O)c2)C(O)=C1O` [Substance 3, L-ascorbyl 6-O-(3,4-dihydroxy)benzoate], in [1], the DPPH free-radical scavenging is 56 mg and the “antioxidative action (DPPH test), in words” value is given as “great antioxidative action”.
In data set [1], `O=C1O[C@H]([C@@H](O)CO)C([O-])=C1OP(=O)([O-])[O-].O=C1O[C@H]([C@@H](O)CO)C([O-])=C1OP(=O)([O-])[O-].[Mg+2].[Mg+2].[Mg+2]` [MAP, magnesium ascorbyl phosphate, reference compound] came in with a DPPH free-radical scavenging greater than 1000 mg. The same compound gave an IC50 against tyrosinase of 33.1 mM.
As for `COc1cc(C(=O)OC[C@H](O)[C@H]2OC(=O)C(O)=C2O)cc(OC)c1O` [Substance 2, L-ascorbyl 6-O-(4-hydroxy-3,5-dimethoxy)benzoate], in [1], the DPPH free-radical scavenging is 185 mg and the “antioxidative action (DPPH test), in words” value was “virtually the same reducing action as vitamin C”.
In the case of `Cc1c(C)c2c(c(C)c1O)CCC(C)(CCCC(C)CCCC(C)CCCC(C)C)O2` (centres unmarked) [Tocopherol, reference compound], in [1], the “AE (×10^−3)” value was 64.1 ×10^−3 and the TEC50 was less than 60 min. For the same compound, in [6], the “Standardised to tocopherol (relative antioxidative efficiency, RAE)” value stood at 1.00; the AE/20 min turned out to be 0.0242; the % inhibition (as a rule, the change of the read-out against control, counted positive when it falls) was 94.7%.
On to `O=C1O[C@H]([C@@H](O)COC(=O)c2cc(O)c(O)c(O)c2)C(O)=C1O` [ASG I, L-ascorbyl 6-gallate], for which, in [1], the DPPH free-radical scavenging is given as 54 mg; the “AE (×10^−3)” value is 69.4 ×10^−3; the “antioxidative action (DPPH test), in words” value was “significantly greater antioxidative action than vitamin C or derivatives thereof”; the TEC50 is 180 min. Also, the TEAC in data set [5] is 3.65. Further, in data set [6], the “Standardised to tocopherol (relative antioxidative efficiency, RAE)” value is recorded as 0.69; the AE/20 min came to 0.1594; the Lipid test was 0.69; the “% inhibition” value came to 65.1%. The “activity relative to tocopherol” value in data set [6] (RAE expressed as percent of the activity of tocopherol) came out at 69%. Besides, the “IC50” value in data set [4] came to 9.3 µg/mL (≈ 28.3 µM). The compound further registered a Protection factor in [2] (dissolved in ethanol) of 3.07. For the same compound, in data set [2] (substance added pure), the Protection factor came out at 1.22. In data set [2] (pure substance in soya oil, Rancimat test), the “solubility in soya oil” value was “only dissolves partially”. Also, the “antioxidative action after storage (DPPH test)” value in data set [3] is given as “retained”. Besides, in [7] (1 mol-percent solution in EtOH:H2O, 40° C., after 30 days), the initial concentration retained was determined as 50%. The “stability, in words” value in data set [7] (pure substance versus aqueous solution) is listed as “stable as the pure substance; also recorded: undergo hydrolysis in aqueous solution”. The compound further had an IC50 against tyrosinase of 0.109 mM. Besides, the “complex formation with Fe^3+” value in [8] is “strong complex-forming properties”. For the same compound, the “effectiveness as antioxidant, in words” value in [9] was “less effective than propyl gallate, but more effective than L-ascorbic acid or L-ascorbyl palmitate”.
In data set [5], `O=C(O)c1cc(O)c(O)c(O)c1` [Gallic acid, reference compound] yielded a TEAC of 2.76. The compound further returned a Lipid test in [6] of 0.37.
`COc1ccc(C(=O)OC[C@H](O)[C@H]2OC(=O)C(O)=C2O)cc1` [Substance 5, L-ascorbyl 6-O-(4-methoxy)benzoate]: in [1], the DPPH free-radical scavenging worked out at 161 mg and the “antioxidative action (DPPH test), in words” value is on record as “virtually the same reducing action as vitamin C”.
For `O=c1c(O)c(-c2ccc(O)c(O)c2)oc2cc(O)cc(O)c12` [3,5,7,3′,4′-Pentahydroxyflavone, reference compound], in data set [1], the “AE (×10^−3)” value was 83 ×10^−3 and the TEC50 is 120 min.
In data set [1], `O=C1O[C@H]([C@@H](O)COC(=O)c2cccc(O)c2)C(O)=C1O` [Substance 6, L-ascorbyl 6-O-(3-hydroxy)benzoate] showed a DPPH free-radical scavenging of 193 mg.
In turn, `COc1cccc(C(=O)OC[C@H](O)[C@H]2OC(=O)C(O)=C2O)c1` [Substance 7, L-ascorbyl 6-O-(3-methoxy)benzoate] registered a DPPH free-radical scavenging in data set [1] greater than 1000 mg.

The values above are taken from patent US20060039937A1, “Composition having antioxidant properties” (priority 2003, published 2006).
